Columns and labels:
MMP9 [1] = target: T1, MMP9 (Homo sapiens, UniProt P14780); assay: Activation of proMMP9 by human fetal lung fibroblast (HFL-1) cultures (Western blot); assay type: cell-based; settings: 3.3 μM, HFL-1, mAb-L51/82
T1 construct: host or cells: HFL-1 human fetal lung fibroblasts
Experimental: Activation of proMMP9 by human fetal lung fibroblast cultures Compound-α was assessed additionally for ability to block the maturation of proMMP9 to active MMP9 in cultures of human fetal lung fibroblasts (HFL-1, American Type Culture Collection #CCL-153). Unlike rat synoviocytes, HFL-1 cells were unable to process proMMP9 to the active form without addition of neutrophil elastase. […] Rather, the function of elastase in this assay may be to inactivate tissue inhibitors of matrix metalloproteinases (TIMPs) that repress endogenous pathways of MMP9 activation (Am J Respir Crit. Care Med; 1999; 159:1138-46).
HLF-1 were maintained in monolayer culture in DMEM with 10% FCS and were used between passage numbers 5-15. HLF-1 were embedded in collagen gels as described for rat SCW synoviocytes (vida supra). Half mL gels containing 0.4 million cells were dislodged into wells of 12 well Costar plates containing 1 mL/well of DMEM adjusted to contain 0.05% BSA and 100 ng/mL human TNFα (R&D Systems Cat #210-TA/CF). After overnight culture (37° C. and 5% CO2) wells were adjusted to contain an additional 0.5 mL of DMEM containing 0.05% BSA and with or without 13.2 μM Compound-α (final concentration was 3.3 μM Compound-α). Next, cultures were adjusted to contain 30 nM human elastase (Innovative Research). The plates were cultured an additional 72 hrs, at which time MMP9 secreted into the conditioned media was bound to gelatin-sepharose and evaluated by Western blot analysis as described for the rat synoviocyte cultures (vida supra). mAb-51/82 detected three forms of MMP9 in HFL-1 cultures.
These included a form of approximately 100 kD with mobility similar to recombinant rat proMMP9, an approximately 80 kD form with mobility similar to rat active MMP9, and an approximately 86 kD intermediate form. In the absence of Compound-α, most of the MMP9 was present as the 80 kD form. In the presence of Compound-α, the 80 kD form was a minor fraction of the total signal while nearly half of the signal were contributed each by the 100 kD and 86 kD forms. […]
A second experiment was performed to determine if the 80 kD form was mature active MMP9 and to determine the potency of Compound-α as an inhibitor of MMP9 maturation in this assay. HFL-1 cells embedded in collagen gels were cultured as described above in the presence of TNFα overnight and the cultures were then adjusted to contain 30 nM elastase and graded concentrations of Compound-α for an additional 72 hrs at which time MMP9 secreted into the conditioned media was bound to gelatin-sepharose and evaluated by Western blot analysis for active MMP9 using pAb-1246 raised against the N-terminal neoepitope of active MMP9 (Table 5). In the absence of Compound-α, pAb-1246 readily detected MMP9 with an electrophoretic mobility of approximately 80 kD. […]

MMP9 [2] = target: T2, MMP9 (Rattus norvegicus, UniProt P50282); assay: Pro and active MMP9 in ankles of rats with SCW-induced arthritis (Western blot); assay type: in vivo
T2 construct: endogenous in cells; host or cells: primary synoviocytes from arthritic female Lewis rats
Experimental: Hind-limbs were skinned, severed just above the tibia-tarsus joint and below the metatarsals, and the tibia-tarsus joints (ankles) were weighed, snap frozen and pulverized on dry ice using a hammer and anvil. The pulverized tissue was suspended in 3 volumes (w:v) of ice-cold homogenization buffer containing 50 mM Tris pH 7.5, 150 mM NaCl, 5 mM EDTA, 1% Triton X100, 0.05% Brij 30, 10% dimethylsulfoxide and Complete EDTA-free Protease Inhibitor Cocktail (Roche Diagnostics). The suspended tissue was homogenized sequentially with a Kinematica AG Polytron and a Dounce homogenizer. Homogenates were centrifuged at 16,000×g for 10 min at 4° C. and the soluble fractions were saved. Dimethylsulfoxide was removed from a portion of each soluble fraction using PD MiniTrap™ G-25 desalting columns (GE Healthcare). Homogenates (0.25 mL), free of DMSO, were diluted with an equal volume of binding buffer (i.e., homogenization buffer without dimethylsufoxide) and adjusted to contain 50 μL of a 50% slurry of gelatin-conjugated sepharose. Following 2 hours of rotation at 4° C. the beads were washed twice in binding buffer and eluted in 100 μL 2×-reducing Laemmli buffer with heating to 95° C. for 5 minutes. […]

T1 sequence (P14780 94-707): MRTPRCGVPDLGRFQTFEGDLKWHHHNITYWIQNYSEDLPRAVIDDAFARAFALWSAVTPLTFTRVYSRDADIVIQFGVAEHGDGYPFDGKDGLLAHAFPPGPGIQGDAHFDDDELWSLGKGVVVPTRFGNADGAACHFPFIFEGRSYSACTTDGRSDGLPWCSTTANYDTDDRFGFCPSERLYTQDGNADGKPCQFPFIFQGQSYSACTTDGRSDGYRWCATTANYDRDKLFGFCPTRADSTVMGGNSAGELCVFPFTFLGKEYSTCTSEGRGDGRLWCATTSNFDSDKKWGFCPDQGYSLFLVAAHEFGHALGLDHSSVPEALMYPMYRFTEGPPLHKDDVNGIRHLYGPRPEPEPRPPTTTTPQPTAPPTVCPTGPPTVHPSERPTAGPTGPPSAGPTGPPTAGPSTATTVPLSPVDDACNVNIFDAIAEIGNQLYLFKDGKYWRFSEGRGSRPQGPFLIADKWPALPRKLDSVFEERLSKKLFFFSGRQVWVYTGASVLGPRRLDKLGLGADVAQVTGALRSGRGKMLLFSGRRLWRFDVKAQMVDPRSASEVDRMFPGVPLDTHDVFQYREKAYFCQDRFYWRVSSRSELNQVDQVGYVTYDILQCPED
T2 sequence (P50282 108-708): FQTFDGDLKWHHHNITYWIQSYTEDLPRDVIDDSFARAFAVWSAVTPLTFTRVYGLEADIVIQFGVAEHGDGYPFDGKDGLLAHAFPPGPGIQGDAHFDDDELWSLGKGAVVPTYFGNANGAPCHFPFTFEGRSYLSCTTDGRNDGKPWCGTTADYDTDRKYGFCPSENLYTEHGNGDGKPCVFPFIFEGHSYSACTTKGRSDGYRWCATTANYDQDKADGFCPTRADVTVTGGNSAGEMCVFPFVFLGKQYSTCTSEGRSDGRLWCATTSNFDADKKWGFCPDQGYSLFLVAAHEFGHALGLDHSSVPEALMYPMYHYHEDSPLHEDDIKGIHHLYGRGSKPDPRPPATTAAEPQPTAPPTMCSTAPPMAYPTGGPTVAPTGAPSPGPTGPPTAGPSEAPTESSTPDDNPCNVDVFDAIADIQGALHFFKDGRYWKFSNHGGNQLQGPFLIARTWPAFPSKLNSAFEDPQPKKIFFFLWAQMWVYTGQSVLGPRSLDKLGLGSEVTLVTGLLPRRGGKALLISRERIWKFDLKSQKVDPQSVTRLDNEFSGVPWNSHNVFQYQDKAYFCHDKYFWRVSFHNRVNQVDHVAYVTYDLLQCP

Percent of total signal, 80 kD (MMP9 [1]): 7%
Percent of total signal, 86 kD (MMP9 [1]): 47%
Percent of total signal, 100 kD (MMP9 [1]): 46%
Signal, Total (MMP9 [1]): 91346 INT * mm^2
Abundance of proMMP9 in ankles (MMP9 [2]; Day 26, FIG. 3A lanes 4-9): did not reduce the abundance of proMMP9
Abundance of proMMP9 in ankles (MMP9 [2]; Day 26, FIG. 3A lanes 4-9, listed as Compound a): did not reduce the abundance of proMMP-9
SMILES: Cc1nc(C)c(-c2csc(Nc3cc(S(N)(=O)=O)ccc3OC(C)C)n2)s1 [Compound-α, 3-(2′,4′-Dimethyl-[4,5′]bithiazolyl-2-ylamino)-4-isopropoxy-benzenesulfonamide•HBr]

— US20120129872A1, “FUSED HETEROARYL INHIBITORS OF PRO-MATRIX METALLOPROTEINASE ACTIVATION” (priority 2010, published 2012)
